Laboratory results from BindingDB's records for patent US10285988 (Curegenix, 2019).

Each compound was assayed against Protein Wnt-3a (Human, UniProt P56704) (assay: WNT Pathway Reporter Gene Assay).
Chain of Protein Wnt-3a (P56704 whole entry): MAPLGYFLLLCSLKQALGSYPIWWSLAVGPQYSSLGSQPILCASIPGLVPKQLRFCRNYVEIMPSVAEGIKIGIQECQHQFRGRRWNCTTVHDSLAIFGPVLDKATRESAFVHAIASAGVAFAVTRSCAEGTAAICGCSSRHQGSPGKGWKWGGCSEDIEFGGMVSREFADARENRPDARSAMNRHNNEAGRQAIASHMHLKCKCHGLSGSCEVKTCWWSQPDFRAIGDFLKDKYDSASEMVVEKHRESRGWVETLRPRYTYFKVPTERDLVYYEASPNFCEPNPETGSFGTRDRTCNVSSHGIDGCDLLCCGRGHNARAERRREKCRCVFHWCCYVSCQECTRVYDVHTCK
Protocol: Materials and Methods: NIH3T3 mouse fibroblast cells (American Type Culture Collection, Manassas, Va.) were transfected with a plasmid containing a luciferase gene driven by 5 copies of TCF elements. Stale cells selected with 1 μg/mL of Zeocin (Gibco/Invitrogen, Carlsbad, Calif.) are cultured in Dulbecco's modified Eagle's medium (Invitrogen, Carlsbad, Calif.) supplemented with 10% FBS (Invitrogen), 50 unit/mL penicillin and 50 μg/mL of streptomycin (Invitrogen) at 37° C. with 5% CO2 in air atmosphere. […] After 16 hours, the firefly luciferase activities are measured with the Steady-Glo Luciferase Assay System (Promega). The cells were treated with different concentrations of compounds of this invention during the co-culture. […] To normalize for cell quantity and viability, CellTiter Glo assay is next performed in a duplicate plate.
Compound `Cc1cc(-c2ccc(CNc3nccc4cc(-c5cnccn5)ncc34)cc2)ccn1` [US10285988, Compound 35] has an IC50 of less than 3 nM.
`Cc1cc(-c2ncc(CNc3nccc4cc(-c5cnccn5)ccc34)cc2C)ccn1` [US10285988, Compound 70] showed an IC50 of less than 3 nM.
`Cc1cc(-c2cc3ccnc(NCc4ccc(-c5ccnc(F)c5)c(F)c4)c3cn2)ccn1` [US10285988, Compound 28] was tested, and the IC50 was less than 3 nM.
In the case of `Cc1cc(-c2ccc(CNc3nccc4cc(-c5ccnc(C)c5)ncc34)cc2)ccn1` [US10285988, Compound 1], the IC50 is reported as less than 3 nM.
`Cc1cc(-c2cc3ccnc(NCc4ccc(-c5ccnc(C)c5)c(C)c4)c3cn2)ccn1` [US10285988, Compound 2] was tested, and the IC50 was less than 3 nM.
